In PMC5733478, “A Non-imaging High Throughput Approach to Chemical Library Screening at the Unmodified Adenosine-A3 Receptor in Living Cells” (Frontiers in Pharmacology, 2017):
Counter-ions that a name gives are not always drawn.

Molecular target: T1, human A3AR (Homo sapiens, UniProt P0DMS8)
T1 construct: expressed in transfected cells
T1 sequence (P0DMS8 1-318): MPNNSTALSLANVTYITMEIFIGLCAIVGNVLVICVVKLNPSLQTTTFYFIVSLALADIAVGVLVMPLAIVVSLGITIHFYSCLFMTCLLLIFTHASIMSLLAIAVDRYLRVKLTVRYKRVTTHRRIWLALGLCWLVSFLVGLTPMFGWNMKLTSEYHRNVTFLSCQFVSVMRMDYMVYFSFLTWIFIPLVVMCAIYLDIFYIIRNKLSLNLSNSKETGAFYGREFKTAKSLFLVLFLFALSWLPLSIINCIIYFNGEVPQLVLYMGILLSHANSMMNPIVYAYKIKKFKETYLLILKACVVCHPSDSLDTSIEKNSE
Assay: LOPAC library primary screen: single concentration (10 μM) inhibition of 25 nM CA200645 binding, PHERAstar FS
Conditions: not given

Row | Molecule | % 25 nM CA200645 binding
1 | CCNc1nc2c(ncn2[C@H]2C[C@H](O)[C@@H](CO)O2)c(=O)[nH]1 [N2-Ethyl-2'-deoxyguanosine] | 108.7 ± 6.3%
2 | COc1cccc(-c2cc(=O)c3ccccc3o2)c1N [PD 98,059] | 80.7 ± 2.6%
3 | CC12CC3CC(C)(C1)CC(N)(C3)C2 [Memantine hydrochloride] | 109.9 ± 10.5%
4 | Cc1cnc(NC(=O)C2=C(O)c3ccccc3S(=O)(=O)N2C)s1 [Meloxicam sodium] | 93.6 ± 6.8%
5 | COc1cc(NS(C)(=O)=O)ccc1Nc1c2ccccc2nc2ccccc12 [Amsacrine hydrochloride] | 99.8 ± 8.3%
6 | CNCCc1cnc(CCC(c2ccccc2)c2ccccc2)[nH]1.O=C(O)C(=O)O.O=C(O)C(=O)O [N-Methylhistaprodifen dioxalate salt] | 99.4 ± 7.3%
7 | NC(C(=O)O)C(O)C(=O)O (racemic) [DL-threo-beta-hydroxyaspartic acid] | 97.0 ± 9.5%
8 | CC(C)(C)c1ccc(/C=C/C(=O)Nc2ccc3c(c2)OCCO3)cc1 [AMG 9810] | 59.0 ± 6.4%
9 | O=c1c2ccccc2nc2n1CCc1c-2[nH]c2ccccc12 [Rutaecarpine] | 34.3 ± 2.1%
10 | COCCCC/C(=N\OCCN)c1ccc(C(F)(F)F)cc1 [Fluvoxamine maleate] | 100.9 ± 16.7%
11 | O=C1CCC(N2C(=O)c3ccccc3C2=O)C(=O)N1 (racemic) [(±)-Thalidomide] | 108.7 ± 11.6%
12 | CC(C)NCC(O)c1ccc(O)c(O)c1.Cl (racemic) [(±)-Isoproterenol hydrochloride] | 95.3 ± 10.4%
13 | COC1(C2=NCCN2)COc2ccccc2O1.Cl (centres unmarked) [RX 821002 hydrochloride] | 101.0 ± 17.5%
14 | Cc1[nH]c2ccc(O)cc2c1CCN.O=C(O)/C=C\C(=O)O [2-Methyl-5-hydroxytryptamine maleate] | 104.7 ± 14.7%
15 | C[C@H]1C[C@H]2[C@@H]3CCC4=CC(=O)C=C[C@]4(C)[C@@]3(F)[C@@H](O)C[C@]2(C)[C@@]1(O)C(=O)CO [Betamethasone] | 77.0 ± 7.6%
16 | COc1ccc2cc([C@H](C)C(=O)[O-])ccc2c1.[Na+] [(-)-Naproxen sodium] | 97.8 ± 4.0%
17 | CC(C)(Oc1ccc(CCNC(=O)c2ccc(Cl)cc2)cc1)C(=O)O [Bezafibrate] | 93.0 ± 7.9%
18 | COc1ccc2c(c1)c(CC(=O)O)c(C)n2Cc1ccc(Cl)cc1 | 97.1 ± 10.6%
19 | CC(C)[N+](C)(CCOC(=O)C1c2ccccc2Oc2ccccc21)C(C)C [Propantheline bromide] | 95.5 ± 4.8%
20 | Nc1nccc2c1ncn2[C@@H]1O[C@H](CO)[C@@H](O)[C@H]1O [3-deazaadenosine] | 93.8 ± 11.9%
21 | CCc1c(C)[nH]c2c1C(=O)C(CN1CCOCC1)CC2 (centres unmarked) [Molindone hydrochloride] | 91.2 ± 7.2%
22 | NS(=O)(=O)c1cc2c(cc1Cl)NCNS2(=O)=O [Hydrochlorothiazide] | 95.6 ± 3.9%
23 | Br.Cc1cccc(C2CN(C)CCc3c2cc(O)c(O)c3Cl)c1 (centres unmarked) [SKF 83959 hydrobromide] | 97.9 ± 6.2%

Row | Molecule | % 25 nM CA200645 binding
24 | CCCCCCCCCCC(C)(C)C(=O)Nc1c(OC)cc(OC)cc1OC [CI-976] | 89.4 ± 17.7%
25 | Cl.Nc1c2c(nc3ccccc13)CCCC2 | 100.2 ± 15.6%
26 | Cn1cc(C(=O)OCC2CCN(CCNS(C)(=O)=O)CC2)c2ccccc21 [GR 113808] | 92.8 ± 8.0%
27 | CN1C[C@H](CNC(=O)OCc2ccccc2)C[C@@H]2c3cccc4c3c(cn4C)C[C@H]21 [Metergoline] | 94.1 ± 8.5%
28 | C[C@H](Cc1ccc(OCC(=O)[O-])cc1)NC[C@H](O)c1cccc(Cl)c1.[Na+] [BRL 37344 sodium] | 98.2 ± 9.4%
29 | Nc1nc(Cl)nc2c1ncn2[C@@H]1O[C@H](COP(=O)(O)OP(=O)(O)OP(=O)(O)O)C(O)C1O (stereo in doubt) | 89.5 ± 23.0%
30 | CCCn1c(=O)c(C)cn2nc(N)nc12 [ICI 63,137] | 93.4 ± 5.4%
31 | Cc1nc(N=Nc2ccc(C(=O)O)cc2)c(COP(=O)(O)O)c(C=O)c1O [MRS 2159] | 83.0 ± 11.6%
32 | CC(C)N(CCC(=O)c1ccc2ccccc2c1)Cc1ccccc1.Cl [ZM 39923 hydrochloride] | 115.5 ± 23.0%
33 | CCCC(CCC)C(=O)O[C@H]1C[C@H]2CC[C@@H](C1)[N+]2(C)C [Anisotropine methyl bromide] | 97.1 ± 12.3%
34 | Cn1cc(C2=C(c3ccc(Cl)cc3Cl)C(=O)NC2=O)c2ccccc21 [SB 216763] | 94.5 ± 10.2%
35 | CC1COc2c(N3CCN(C)CC3)c(F)cc3c(=O)c(C(=O)O)cn1c23 (centres unmarked) [Ofloxacin] | 93.4 ± 20.0%
36 | Cc1ccc(=O)n(-c2ccccc2)c1 [Pirfenidone] | 96.4 ± 15.8%
37 | CCCN(CC1CC1)c1nc(C)nc(Nc2c(Cl)cc(Cl)cc2Cl)c1Cl [NBI 27914] | 89.7 ± 7.0%
38 | O=C(Nc1ccccc1)c1cc([N+](=O)[O-])ccc1Cl [GW9662] | 114.5 ± 11.5%
39 | CC[C@@]1(O)C(=O)OCc2c1cc1n(c2=O)Cc2cc3c(CN(C)C)c(O)ccc3nc2-1.Cl.O [Topotecan hydrochloride hydrate] | 102.0 ± 7.8%
40 | COc1ccc2c(c1OC)C(=O)O[C@@H]2[C@H]1c2c(cc3c(c2OC)OCO3)CCN1C.Cl [Noscapine hydrchloride] | 114.6 ± 20.4%
41 | c1ccc2c(CC3=NCCN3)cccc2c1 [Naphazoline hydrochloride] | 105.3 ± 13.5%
42 | CN(C)CC[C@@H](c1ccc(Br)cc1)c1ccccn1 [(+)-Brompheniramine maleate] | 97.2 ± 7.4%
43 | CC(=O)OCC(CCn1cnc2cnc(N)nc21)COC(C)=O [Famciclovir] | 104.8 ± 9.2%
44 | O=C(O)/C(=C/c1c(C(=O)O)[nH]c2cc(Cl)cc(Cl)c12)c1ccccc1 [MDL 105,519] | 101.6 ± 19.9%
45 | CCOC(=O)Nc1ccc(NCc2ccc(F)cc2)nc1N [Flupirtine maleate] | 75.3 ± 9.1%
46 | O.c1cnc2c(c1)ccc1cccnc12 [1,10-Phenanthroline monohydrate] | 90.7 ± 13.0%

Row | Molecule | % 25 nM CA200645 binding
47 | CC(C)N(CCC(C(N)=O)(c1ccccc1)c1ccccn1)C(C)C (centres unmarked) [Disopyramide] | 78.9 ± 27.0%
48 | CNCC[C@@H](Oc1ccccc1C)c1ccccc1 [Tomoxetine] | 97.5 ± 8.3%
49 | NC(=O)c1ccc2[nH]ccc2c1 [SD-169] | 96.7 ± 5.5%
50 | COc1ccc(-c2cc3nccn3c(Nc3ncccc3C(N)=O)n2)cc1OC.Cl.O [BAY 61-3606 hydrochloride hydrate] | 83.8 ± 10.8%
51 | CC(C)COCC(CN(Cc1ccccc1)c1ccccc1)N1CCCC1 (centres unmarked) [Bepridil hydrochloride] | 101.8 ± 6.3%
52 | NC(=NCc1ccccc1)NC(=O)c1nc(Cl)c(N)nc1N [Benzamil hydrochloride] | 95.3 ± 5.6%
53 | NCCCNCCCCNCCCN [Spermine tetrahydrochloride] | 105.8 ± 16.0%
54 | CC(=N)NCCCC[C@H](N)C(=O)O.Cl [L-N6-(1-Iminoethyl)lysine hydrochloride] | 96.4 ± 1.7%
55 | Br.C=CCN1CCc2c(cc(O)c(O)c2Br)[C@@H](c2ccccc2)C1 [R(+)-6-Bromo-APB hydrobromide] | 77.8 ± 20.1%
56 | Cc1cc(O)c2c(c1)C(=O)c1cc(O)cc(O)c1C2=O [Emodin] | 52.8± 4.4%
57 | CN(C)CCC=C1c2ccccc2C=Cc2ccccc21 [Cyclobenzaprine hydrochloride] | 85.3 ± 24.5%
58 | Cl.Nc1cc(Cl)c(N=C2NCCN2)c(Cl)c1 [p-Aminoclonidine hydrochloride] | 89.0 ± 23.3%
59 | NC(=O)c1ncn([C@@H]2O[C@H](CO)[C@@H](O)[C@H]2O)n1 [Ribavirin] | 103.3 ± 14.0%
60 | Cn1cnc2c(NCc3ccccc3)nc(NCCO)nc21 [Olomoucine] | 97.0 ± 10.1%
61 | Cc1[nH]c(=O)c(C#N)cc1-c1ccc2nccn2c1.Cl [Olprinone hydrochloride] | 100.7 ± 4.5%
62 | Ro 90-7501 | 72.1 ± 6.0%
63 | Cc1ccc(S(=O)(=O)O)cc1.NC[C@H]1O[C@@H](n2cnc3c(N)ncnc32)[C@H](O)[C@@H]1O | 85.5 ± 26.7%
64 | O=[N+]([O-])c1ccc(CNc2nc(NCc3cccc(C(F)(F)F)c3)nc3nc[nH]c23)cc1 [TNP] | 61.8 ± 11.7%
65 | CC(C)NC(C)Cc1ccc(I)cc1 (centres unmarked) [Iofetamine hydrochloride] | 100.8 ± 7.1%
66 | CC[C@H](NC(=O)c1c(C)c(-c2ccccc2)nc2ccccc12)c1ccccc1 [SB 222200] | 76.8 ± 5.5%
67 | Picrotoxin | 96.8 ± 4.1%
68 | CCCCc1ccc(C(=O)O)nc1 [Fusaric acid] | 66.5 ± 29.0%

Same assay, conditions: % of control wells (1% DMSO and 25 nM CA200645); compounds at 10 µM; whole live cells expressing the A3AR; mean ± SD, three experiments in duplicate

Row | Molecule | % 25 nM CA200645 binding
69 | COc1ccc(CCCOC(Cn2ccnc2)c2ccc(OC)cc2)cc1 (centres unmarked) [SKF 96365] | 100.0 ± 16.7%

Same assay, conditions: compounds tested at 10 µM; % of control wells (1% DMSO and 25 nM CA200645); whole live cells expressing the A3AR; mean ± SD, three experiments in duplicate

Row | Molecule | % 25 nM CA200645 binding
70 | C#CCN(C)CCCOc1ccc(Cl)cc1Cl [Clorgyline hydrochloride] | 96.0 ± 4.2%
71 | N#CC(C#N)=C(N)/C(C#N)=C/c1cc(O)c(O)c(O)c1 [Tyrphostin 51] | 94.9 ± 2.9%
